Measured values reported in ChEMBL document CHEMBL1201862, “PubChem BioAssay data set” (2004).
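Protocol summary: plate cells (96-well), add compound at 5 concentrations, incubate 48 h, interpolate endpoints linearly. GI50 marks 50% less growth.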 Active and inactive are the calls of the source. No stated cut-off is given here; in the data, active = GI50 up to about 1.1 µM and inactive = higher.

Experiments:
Test in all cases: DTP human tumour cell line panel, 48 h
[1] = test system: ACHN
[2] = test system: CAKI-1
[3] = test system: HL-60
[4] = test system: HOP-92
[5] = test system: NCI-H226
[6] = test system: NCI-H460
[7] = test system: NCI-H522
[8] = test system: OVCAR-5
[9] = test system: RPMI-8226
[10] = test system: SK-OV-3
[11] = test system: SN12C
[12] = test system: SNB-19
[13] = test system: SNB-75
[14] = test system: UACC-257
[15] = test system: UACC-62
[16] = test system: SF-539

SMILES	GI50 [1]	GI50 [2]	GI50 [3]	GI50 [4]	GI50 [5]	GI50 [6]	GI50 [7]	GI50 [8]	GI50 [9]	GI50 [10]	GI50 [11]	GI50 [12]	GI50 [13]	GI50 [14]	GI50 [15]	GI50 [16]
NC(CCCNc1cccc(O)c1)C(=O)O (configuration not stated)	> 100 µM (inactive)	> 100 µM (inactive)	> 100 µM (inactive)	> 100 µM (inactive)	> 100 µM (inactive)	> 100 µM (inactive)	> 100 µM (inactive)	> 100 µM (inactive)	> 100 µM (inactive)	> 100 µM (inactive)	> 100 µM (inactive)	> 100 µM (inactive)	> 100 µM (inactive)	> 100 µM (inactive)	> 100 µM (inactive)	
CC1(C)C(c2ccccc2)=NN(O)c2ccccc21		> 100 µM (inactive)	> 100 µM (inactive)		> 100 µM (inactive)	> 100 µM (inactive)	> 100 µM (inactive)	> 100 µM (inactive)	> 100 µM (inactive)	> 100 µM (inactive)		> 100 µM (inactive)	86.1 µM (inactive)	> 100 µM (inactive)	> 100 µM (inactive)	> 100 µM (inactive)
CC1CCN(CCC(=O)CC(c2ccccc2)c2c(O)c3ccccc3oc2=O)CC1 (configuration not stated)	> 100 µM (inactive)	> 100 µM (inactive)	> 100 µM (inactive)		80 µM (inactive)	> 100 µM (inactive)	> 100 µM (inactive)		> 100 µM (inactive)	> 100 µM (inactive)		> 100 µM (inactive)	82.8 µM (inactive)	> 100 µM (inactive)	> 100 µM (inactive)	> 100 µM (inactive)
O=C1c2ccccc2C2CCC1c1ccccc12 (configuration not stated)	25.6 µM (inactive)	34.8 µM (inactive)	15 µM (inactive)	20.3 µM (inactive)	45.6 µM (inactive)	33.3 µM (inactive)	25 µM (inactive)	> 100 µM (inactive)	16 µM (inactive)	41.5 µM (inactive)	43.8 µM (inactive)	65 µM (inactive)	24.5 µM (inactive)	25.3 µM (inactive)	34.6 µM (inactive)	64 µM (inactive)
Cc1ccc(/C=C/C(=O)CCN(C)C)cc1	18.5 µM (inactive)	13.9 µM (inactive)	21.1 µM (inactive)	19.5 µM (inactive)	19.2 µM (inactive)	21.8 µM (inactive)		33.8 µM (inactive)	19.3 µM (inactive)	45 µM (inactive)	16.9 µM (inactive)	26.3 µM (inactive)	20.1 µM (inactive)	14.7 µM (inactive)	14.6 µM (inactive)	16.9 µM (inactive)
C=C[C@@]1(O)CCCC2=C(C(=O)OCC)CC[C@]21C	> 100 µM (inactive)		36.1 µM (inactive)	> 100 µM (inactive)	> 100 µM (inactive)	> 100 µM (inactive)	> 100 µM (inactive)	> 100 µM (inactive)	> 100 µM (inactive)	> 100 µM (inactive)	> 100 µM (inactive)	47.5 µM (inactive)		> 100 µM (inactive)		> 100 µM (inactive)
Nc1ccccc1Nc1ccccc1C(=O)[O-].Nc1ccccc1Nc1ccccc1C(=O)[O-].[Zn+2]	> 100 µM (inactive)	> 100 µM (inactive)				> 100 µM (inactive)	19.7 µM (inactive)	> 100 µM (inactive)	> 100 µM (inactive)	> 100 µM (inactive)	> 100 µM (inactive)	> 100 µM (inactive)	17.7 µM (inactive)	33.7 µM (inactive)	25.1 µM (inactive)	> 100 µM (inactive)
C[C@]1(CO)CCC[C@@]2(C)C1CC[C@H]1CC3C[C@]12CC[C@]3(C)O (some centres not stated)	74.6 µM (inactive)	> 100 µM (inactive)	5.22 µM (inactive)	> 100 µM (inactive)	> 100 µM (inactive)	19 µM (inactive)	16.3 µM (inactive)	> 100 µM (inactive)	17.3 µM (inactive)	> 100 µM (inactive)	> 100 µM (inactive)	> 100 µM (inactive)	30.8 µM (inactive)	54.2 µM (inactive)	> 100 µM (inactive)	57.7 µM (inactive)
CCOC(=O)Oc1c(OC)cc(C(=O)NC2CCc3cc(OC)c(OC)c(OC)c3-c3ccc(SC)c(=O)cc32)cc1OC (configuration not stated)	0.537 µM (active)		< 0.007 µM (active)	0.0728 µM (active)	0.0471 µM (active)	0.164 µM (active)	< 0.007 µM (active)			0.0513 µM (active)	0.0542 µM (active)	0.324 µM (active)	0.071 µM (active)	0.0743 µM (active)	0.0528 µM (active)	0.0245 µM (active)
O=C1CCCN(c2ccccc2)N1	> 100 µM (inactive)	> 100 µM (inactive)	> 100 µM (inactive)		> 100 µM (inactive)	> 100 µM (inactive)	> 100 µM (inactive)	> 100 µM (inactive)	> 100 µM (inactive)	> 100 µM (inactive)	> 100 µM (inactive)	> 100 µM (inactive)	> 100 µM (inactive)	> 100 µM (inactive)	> 100 µM (inactive)	> 100 µM (inactive)
